Entries after “also recorded” stand apart in the source; their conditions may differ.
Key:
[1] = Mechanical tests of bilayer tensile strength; format: physicochemical
Protocol: (3) Mechanical tests of bilayer tensile strength were carried out on vesicles that contained 0-20 mol % PEG(750)-lipid as a function of MOPC uptake.
As the bilayer takes up more and more of a water-soluble second component (e.g., bile acid or MOPC) it is expected that it will become weaker and softer (Evans et al., In Bile Acids in Gasteroenterology Basic and Clinical Advances, Hoffman et al. (Eds.) Kluwer Academic Publishers, Doderecht, Boston and London, pp. 59-68 (1994); Needham and Zhelev, Ann. Biomed. Egr. 23:287 (1995); Zhelev, Biophys J. 71:257 (1996)). To test this model, the tensile rupture strength of vesicles containing various amounts of MOPC at stationary equilibrium was measured. […] To obtain the wide range of MOPC bilayer concentrations, several different lipid, PEG-lipid and MOPC solution concentrations were used (0.1 μM MOPC; 1.0 μM MOPC; 20% PEG-lipid and 100 μM MOPC; 4% PEG-lipid and 100 μM MOPC; and 1% PEG-lipid and 100 μM MOPC) as indicated on the plot next to each data point in FIG. 6.
PEG-lipids were used in some but not all of these vesicle tests. Whether the incorporation of the PEG-lipids (DMPE-(PEG)750) themselves had any effect on the tensile strength of the bilayer vesicles was also investigated. […]

[2] = Critical micelle concentration by DPH fluorescence; format: physicochemical
Protocol: The critical micelle concentration (CMC) of the lysolipid was measured independently by DPH fluorescence following the method in Chattopadhyay and London, Analytical Biochem. 139:408 (1984). Briefly, a series of solutions containing increasing concentrations of MOPC in the range 10^-7 M to 10^-4 M were prepared. Diphenyl hexatriene (DPH), a lipid soluble fluorescent dye, was added to these samples and the intensity of fluorescence was measured by spectrofluorimeter at absorption and emission wavelengths of 358 nm and 430 nm, respectively. The CMC was determined by plotting the fluorescence intensity (in arbitrary units) verses concentration of MOPC solutions, made up by diluting a 100 mM stock solution of MOPC (solubilized initially by Tetrahydrofuran) in water (Chattopadhyay and London, Analytical Biochem. 139:408 (1984)).
This second trial used SOPC +20 mol % PEG2000 DSPE (0.2 mg/ml, 2×10^-4 M total lipid) for the lipid vesicles and 1 mM PEG2000 DSPE as micellar suspension. […] It was as though the PEG-lipids at this high concentration had formed a gel inside the vesicles.

[3] = MOPC uptake into and desorption from single vesicles, micropipet lysolipid exchange; format: physicochemical
Protocol: I. du Pont de Nemours and Co.) disc and the chloroform evaporated under nitrogen. Final traces of solvent were removed by placing the disc in an evacuated desiccator for 2 hours (Needham and Nunn, Biophys. J. 58:997 (1990)). The so-formed dried lipid layers were prehydrated with water vapor in a nitrogen carrier gas and then fully hydrated overnight in a sucrose solution at 40° C. […] Both the pure SOPC and SOPC/PEG(750)-lipid vesicles were re-suspended in a glucose solution of 205 mOsm for use in micromanipulation experiments as described below. […] The microscope images were recorded using a COHU CCD camera. […] The pipettes were connected to a manometer system that allowed the applied pressures to be changed and measured to an accuracy of 2 microatmospheres. The micropipet suction pressures were measured by differential transducer (Validyne DP15-24). The measured pressures together with real time were multiplexed on the recorded images with a multiplexer (Model 401, Vista Electronics, La Mesa, Calif., USA). The recorded images were used to measure the change of the vesicle projection length inside the holding pipet during uptake and desorption of lysolecithin, and to calculate the membrane tension. […] The vesicle projection length (Lp) inside the holding pipet is measured and the effects of various solutions on the Lp of the test vesicle are compared. […]

[4] = unmodified egg PC membranes, flow rate 300 μm/s; cited from earlier work
[5] = Solubility of TAXOL in water and organic solvents; format: physicochemical; settings: hexane or tetradecane
[6] = TAXOL solubilized in MOPC micelle suspension; format: physicochemical
Protocol: For concentrations higher than 50 micromolar, samples were diluted in methanol and the original concentrations were back-calculated.
These components were mixed together in glass culture tubes, and the mixture was dried and kept under vacuum for approximately 15 hours to evaporate the solvent. MOPC was chosen because it has an acyl chain composition that matches the di-chain phospholipid, stearoyloleoylphosphatidylcholine, that was used to form the lipid bilayers of encapsulating liposomes, as discussed below. […] Surfactants with high CMCs (e.g., in the mM range) readily dissolve lipid membranes, even when the membranes contain cholesterol.

[7] = cited from earlier work
[8] = small angle neutron scattering; cited from earlier work

1,2-Dimyristoyl-sn-Glycero-3-Phosphoethanolamine -N-PEG-750 [PEG(750)-lipid]
tensile rupture strength, effect [1]: did not reduce the tensile strength significantly, up to 20 mol % PEG-lipid

CCCCCCCC/C=C\CCCCCCCC(=O)OC[C@@H](O)COP(=O)([O-])OCC[N+](C)(C)C [MOPC, mono-oleoyl-phosphatidylcholine]
tensile rupture strength, effect [1]: decrease with increasing MOPC concentration | critical micelle concentration (CMC) [2]: 3 µM | aggregation number in membrane ([3]; above the CMC): about 12 | overall rate of MOPC desorption ([3]; flow rate 400 μm/s, all PEG(750)-lipid concentrations, 5 vesicles): 0.4 ± 0.2 s⁻¹ | rate of MOPC desorption [4]: 0.2 s⁻¹

CC(=O)O[C@H]1C(=O)[C@@]2(C)[C@H]([C@H](OC(=O)c3ccccc3)[C@]3(O)C[C@H](OC(=O)[C@H](O)[C@@H](NC(=O)c4ccccc4)c4ccccc4)C(C)=C1C3(C)C)[C@]1(OC(C)=O)CO[C@@H]1C[C@@H]2O [TAXOL®]
solubility in alkanes / hexane [5]: not soluble at all in alkanes such as hexane or tetradecane; also recorded: largely insoluble in hexane | stability of TAXOL in micelle suspension ([6]; 0.2 mM TAXOL, 5 mM MOPC): at least 24 hours | TAXOL solubilized in MOPC micelles ([6]; 5 mM MOPC): up to 1 mM | increase of solubility limit over aqueous solubility ([6]; 20 mM LPC): about 4000 times | solubility limit in aqueous media in presence of LPC ([6]; 20 mM LPC): 4 mM | moles TAXOL solubilized per mole MOPC micelle ([6]; MOPC micelle, data not shown): 1 mole TAXOL per mole MOPC | water solubility of TAXOL [7]: about 1 micromolar

CCCCCC(=O)OCC(COP(=O)([O-])OCC[N+](C)(C)C)OC(=O)CCCCC (stereo not drawn) [dicaproylphosphatidylcholine]
micelle aggregation number [8]: 19

CCCCCCC(=O)OCC(COP(=O)([O-])OCC[N+](C)(C)C)OC(=O)CCCCCC (stereo not drawn) [diheptanoylphosphatidylcholine]
micelle aggregation number [8]: 27

— patent publication US6296870A, “Liposomes containing active agents” (Duke University, priority 1998, dated 2001)
